Source: patent US8642611B2, “Alkynylpyrimidines and salts thereof, pharmaceutical compositions comprising same, methods of preparing same and uses of same” (Bayer Intellectual Property GmbH, priority 2007, dated 2014)

Experiments:
Tie2 [1] = target: T1, Tie2 (Homo sapiens, UniProt Q02763); test: Tie-2-Kinase HTRF-Assay without kinase preactivation; type: biochemical; parameters: fusion protein of GST and the intracellular domains of Tie-2; GST; made in house; host or cells: insect cells (Hi-5); settings: GST-Tie-2 intracellular domains, 10 μM ATP, read-out: Tie2 activity (assay 2)
From the text: Tie2-inhibitory activity of compounds of the present invention was quantified employing two Tie2 HTRF assay as described in the following paragraphs.
A recombinant fusion protein of GST and the intracellular domains of Tie-2, expressed in insect cells (Hi-5) and purified by Glutathion-Sepharose affinity chromatography was used as kinase. Alternatively, commercially available GST-Tie2-fusion protein (Upstate Biotechnology, Dundee, Scotland) can be used As substrate for the kinase reaction the biotinylated peptide biotin-Ahx-EPKDDAYPLYSDFG (C-terminus in amid form) was used which can be purchased e.g. from the company Biosynthan GmbH (Berlin-Buch, Germany). Detection of phosphorylated product is achieved specifically by a trimeric detection complex consisting of the phosphorylated substrate, streptavidin-XLent (SA-XLent) which binds to biotin, and Europium Cryptate-labeled anti-phosphotyrosine antibody PT66 which binds to phosphorylated tyrosine.
Tie-2 (3.5 ng/measurement point) was incubated for 60 min at 22° C. in the presence of 10 μM adenosine-tri-phosphate (ATP) and 1 μM substrate peptide (biotin-Ahx-EPKDDAYPLYSDFG-NH2) with different concentrations of test compounds (0 μM and concentrations in the range 0.001-20 μM) in 5 μl assay buffer [50 mM Hepes/NaOH pH 7, 10 mM MgCl2, 0.5 mM MnCl2, 1.0 mM dithiothreitol, 0.01% NP40, protease inhibitor mixture (“Complete w/o EDTA” from Roche, 1 tablet per 2.5 ml), 1% (v/v) dimethylsulfoxide]. The reaction was stopped by the addition of 5 μl of an aqueous buffer (25 mM Hepes/NaOH pH 7.5, 0.28% (w/v) bovine serum albumin) containing EDTA (90 mM) and the HTRF (Homogeneous Time Resolved Fluorescence) detection reagents streptavidine-XLent (0.2 μM, from Cis Biointernational, Marcoule, France) and PT66-Eu-Chelate (0.3 ng/μl; a europium-chelate labelled anti-phospho-tyrosine antibody from Perkin Elmer).
The resulting mixture was incubated 1 h at 22° C. to allow the binding of the biotinylated phosphorylated peptide to the streptavidine-XLent and the PT66-Eu-Chelate. Subsequently the amount of phosphorylated substrate peptide was evaluated by measurement of the resonance energy transfer from the PT66-Eu-Chelate to the streptavidine-XLent. Therefore, the fluorescence emissions at 620 nm and 665 nm after excitation at 350 nm was measured in a HTRF reader, e.g. a Rubystar (BMG Labtechnologies, Offenburg, Germany) or a Viewlux (Perkin-Elmer). The ratio of the emissions at 665 nm and at […] was taken as the measure for the amount of phosphorylated substrate peptide. The data were normalised (enzyme reaction without inhibitor=0% inhibition, all other assay components but no enzyme=100% inhibition) and IC50 values were calculated by a 4 parameter fit using an inhouse software.
Target sequence in this assay (Q02763 770-1124 limits assumed): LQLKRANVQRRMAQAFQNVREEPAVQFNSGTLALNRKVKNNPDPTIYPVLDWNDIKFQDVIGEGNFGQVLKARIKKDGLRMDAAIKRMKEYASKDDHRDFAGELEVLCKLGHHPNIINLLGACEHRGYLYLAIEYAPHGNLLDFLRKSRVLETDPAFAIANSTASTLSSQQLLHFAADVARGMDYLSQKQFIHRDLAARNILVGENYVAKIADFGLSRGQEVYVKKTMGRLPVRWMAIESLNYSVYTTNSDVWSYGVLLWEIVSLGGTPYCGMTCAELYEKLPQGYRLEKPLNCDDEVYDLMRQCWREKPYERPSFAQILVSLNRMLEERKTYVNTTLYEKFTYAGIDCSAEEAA

Tie2 [2] = target: T1, Tie2; test: Tie2 ELISA assay (cellular Tie2 autophosphorylation, angiopoietin-2 stimulated); type: cell-based; parameters: expressed in transfected cells; host or cells: CHO (DHFR-deficient), stably transfected with Tie2; settings: CHO cells stably transfected with Tie2, stimulated by angiopoietin-2; Tie2 autophosphorylation by sandwich-ELISA; read-out: Tie2 activity (assay 1)
Protocol: Assay 1: Tie2 ELISA Assay
Cellular activity of compounds of the present invention as inhibitors of Tie2 kinase activity was measured employing a Tie2 ELISA assay as described in the following paragraphs. Herein CHO cell-cultures, which are stably transfected by known techniques with Tie2 using DHFR deficiency as selection marker, are stimulated by angiopoietin-2. The specific autophosphorylation of Tie2 receptors is quantified with a sandwich-ELISA using anti-Tie2 antibodies for catch and anti-phosphotyrosine antibodies coupled to HRP for detection.
• 96well tissue culture plate, sterile, Greiner • 96well FluoroNunc plate MaxiSorp Surface C, Nunc • 96well plate polypropylene for compound dilution in DMSO • CHO Tie2/DHFR (transfected cells) • PBS−; PBS++, DMSO • MEM alpha Medium with Glutamax-I without Ribonucleosides and • Deoxyribonucleosides (Gibco #32561-029) • with 10% FCS after dialysis! and 1% PenStrep • Lysis buffer: 1 Tablet “Complete” protease inhibitor • 1 cap Vanadate (1 mL>40 mg/mL; working solution 2 mM) • ad 50 mL with Duschl-Puffer • pH 7.6 • Anti-Tie2-antibody 1: 425 in Coating Buffer pH 9.6 • Stock solution: 1.275 mg/mL>working.: 3 μg/mL • PBST: 2 bottles PBS(10×)+10 ml Tween, fill up with VE-water • RotiBlock 1: 10 in VE-water • Anti-Phosphotyrosine HRP-Conjugated 1: 10000 in 3% TopBlock • 3% TopBlock in PBST • BM Chemiluminescence ELISA Substrate (POD) • solution B 1: 100 solution A • SF9 cell culture medium • Ang2-Fc in SF9 cell culture medium Cell Experiment: • Dispense 5×10^4 cells/well/98 μL in 96well tissue culture plate • Incubate at 37° C./5% CO2 • After 24 h add compounds according to desired concentrations • Add also to control and stimulated values without compounds 2 μL DMSO • And mix for a few min at room temperature • Add 100 μL Ang2-Fc to all wells except control, which receives insect medium • Incubate 20 min at 37° C. • Wash 3× with PBS++ • Add 100 μl Lysis buffer/well and shake a couple of min at room temperature • Store lysates at […] before utilizing for the ELISA Performance of Sandwich-ELISA • Coat 96well FluoroNunc Plate MaxiSorp Surface C with anti-Tie2 mAb 1: 425 in Coating buffer pH 9.6; 100 μL/well overnight at 4° C. • Wash 2× with PBST • Block plates with 250 μL/well RotiBlock 1: 10 in VE-water • Incubate for 2 h at room temperature or overnight at 4° C. shaking • Wash 2× in PBST • Add thawed lysates to wells and incubate overnight shaking at 4° C. • Wash 2× with PBST • Add 100 μL/well anti-Phosphotyrosine HRP-Conjugated 1:10000 in 3% TopBlock (3% TopBlock in PBST) and incubate overnight under shaking • Wash 6× with PBST • Add 100 μL/well BM Chemiluminescence ELISA Substrate (POD) • solutions 1 und 2 (1:100) • Determine luminescence with the LumiCount. Assay 2: Tie-2-Kinase HTRF-Assay without kinase preactivation
Target sequence in this assay (Q02763 23-1124): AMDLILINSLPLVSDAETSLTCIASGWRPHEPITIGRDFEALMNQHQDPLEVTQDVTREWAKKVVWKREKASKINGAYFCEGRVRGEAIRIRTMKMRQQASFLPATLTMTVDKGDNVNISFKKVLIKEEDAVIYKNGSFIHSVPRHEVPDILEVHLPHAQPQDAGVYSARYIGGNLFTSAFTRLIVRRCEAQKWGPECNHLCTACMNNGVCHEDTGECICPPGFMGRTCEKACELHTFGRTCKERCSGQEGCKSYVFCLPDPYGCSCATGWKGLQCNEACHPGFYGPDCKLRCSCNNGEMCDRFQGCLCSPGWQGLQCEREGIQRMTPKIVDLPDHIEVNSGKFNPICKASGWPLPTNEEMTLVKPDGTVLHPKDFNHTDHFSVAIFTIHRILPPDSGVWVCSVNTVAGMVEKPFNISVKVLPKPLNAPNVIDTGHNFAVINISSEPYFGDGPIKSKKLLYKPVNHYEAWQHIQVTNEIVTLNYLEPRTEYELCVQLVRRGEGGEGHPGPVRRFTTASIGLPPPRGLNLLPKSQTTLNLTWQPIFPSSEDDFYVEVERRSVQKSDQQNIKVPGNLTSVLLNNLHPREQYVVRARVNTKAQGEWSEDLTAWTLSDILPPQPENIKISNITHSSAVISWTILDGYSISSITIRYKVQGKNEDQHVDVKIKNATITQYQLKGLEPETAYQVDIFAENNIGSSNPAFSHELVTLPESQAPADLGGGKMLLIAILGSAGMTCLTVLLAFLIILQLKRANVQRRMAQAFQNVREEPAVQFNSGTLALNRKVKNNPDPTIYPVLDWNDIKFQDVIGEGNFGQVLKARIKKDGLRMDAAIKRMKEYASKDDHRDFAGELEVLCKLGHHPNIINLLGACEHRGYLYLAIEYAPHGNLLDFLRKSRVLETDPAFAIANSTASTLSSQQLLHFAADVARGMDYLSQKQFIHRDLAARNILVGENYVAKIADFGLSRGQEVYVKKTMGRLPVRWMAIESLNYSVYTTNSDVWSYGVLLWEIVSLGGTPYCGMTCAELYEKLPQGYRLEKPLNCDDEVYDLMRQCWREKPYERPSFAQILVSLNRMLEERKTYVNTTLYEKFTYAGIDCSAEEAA

IC50 (Tie2 [1]) [nM] | IC50 (Tie2 [2]) [nM] | SMILES
< 500 | < 500 | COc1ccc(C#Cc2cnc(Nc3ccc(S(C)(=N)=O)cc3)nc2N[C@H](C)CO)cc1 (mixture of isomers) [Example 1.1, (RS)—S-(4-[4-((R)-2-Hydroxy-1-methyl-ethylamino)-5-(4-methoxy-phenylethynyl)-pyrimidin-2-ylamino]-phenyl)-S-methylsulfoximide]
< 500 | < 500 | C[C@H](CO)Nc1nc(Nc2ccc(S(C)(=N)=O)cc2)ncc1C#Cc1ccccc1 (mixture of isomers) [Example 1.2, (RS)-S-(4-[4-((R)-2-Hydroxy-1-methyl-ethylamino)-5-(phenylethynyl)-pyrimidin-2-ylamino]-phenyl)-S-methylsulfoximide]
< 500 | < 500 | CCc1ccc(C#Cc2cnc(Nc3ccc(S(C)(=N)=O)cc3)nc2N[C@H](C)CO)cc1 (mixture of isomers) [Example 1.8, (RS)-S-(4-[5-(4-Ethyl-phenylethynyl)-4-((R)-2-hydroxy-1-methyl-ethylamino)-pyrimidin-2-ylamino]-phenyl)-S-methylsulfoximide]
< 500 | < 500 | C[C@H](CO)Nc1nc(Nc2ccc(S(C)(=N)=O)cc2)ncc1C#Cc1ccc(F)cc1 (mixture of isomers) [Example 1.9, (RS)-S-(4-[5-(4-Fluoro-phenyl-ethynyl)-4-((R)-2-hydroxy-1-methyl-ethylamino)-pyrimidin-2-ylamino]-phenyl)-S-methylsulfoximide]
< 500 | < 500 | Cc1cc(C#Cc2cnc(Nc3ccc(S(C)(=N)=O)cc3)nc2N[C@H](C)CO)ccc1F (mixture of isomers) [Example 1.13, (RS)-S-(4-[5-(4-Fluoro-3-methyl-phenyl-ethynyl)-4-((R)-2-hydroxy-1-methyl-ethylamino)-pyrimidin-2-ylamino]-phenyl)-S-methylsulfoximide]
< 500 | < 500 | Cc1ccccc1C#Cc1cnc(Nc2ccc(S(C)(=N)=O)cc2)nc1N[C@H](C)CO (mixture of isomers) [Example 1.3]
< 500 | < 500 | Cc1ccc(C#Cc2cnc(Nc3ccc(S(C)(=N)=O)cc3)nc2N[C@H](C)CO)cc1 (mixture of isomers) [Example 1.5]

The next lines start with the molecule.

SMILES | IC50 (Tie2 [1]) [nM] | IC50 (Tie2 [2]) [nM]
CC(C)NC(=O)N=S(C)(=O)c1cccc(Nc2ncc(C#Cc3cccc(O)c3)c(N[C@H](C)CO)n2)c1 (mixture of isomers) [Example 1.15, (RS)-S-(3-[4-((R)-2-Hydroxy-1-methyl-ethylamino)-5-(3-hydroxy-phenylethynyl)-pyrimidin-2-ylamino]-phenyl)-N-(isopropylcarbamoyl)-S-methylsulfoximide] | < 500 | < 500
COc1ccc(C#Cc2cnc(Nc3cccc(S(C)(=N)=O)c3)nc2N[C@H](C)CO)cc1 (mixture of isomers) [Example 1.17, (RS)-S-(3-[4-((R)-2-Hydroxy-1-methyl-ethylamino)-5-(4-methoxy-phenylethynyl)-pyrimidin-2-ylamino]-phenyl)-S-methylsulfoximide] | < 500 | < 500
C[C@H](CO)Nc1nc(Nc2cccc(S(C)(=N)=O)c2)ncc1C#Cc1cccc(O)c1 (mixture of isomers) [Example 1.18, (RS)-S-(3-[4-((R)-2-Hydroxy-1-methyl-ethylamino)-5-(3-hydroxy-phenylethynyl)-pyrimidin-2-ylamino]-phenyl)-S-methylsulfoximide] | < 500 | < 500
Cc1ccccc1C#Cc1cnc(Nc2cccc(S(C)(=N)=O)c2)nc1N[C@H](C)CO (mixture of isomers) [Example 1.19, (RS)-S-(3-[4-((R)-2-Hydroxy-1-methyl-ethylamino)-5-(2-methyl-phenylethynyl)-pyrimidin-2-ylamino]-phenyl)-S-methylsulfoximide] | < 500 | < 500
Cc1cc(C#Cc2cnc(Nc3cccc(S(C)(=N)=O)c3)nc2N[C@H](C)CO)ccc1F (mixture of isomers) [Example 1.20, (RS)-S-(3-[5-(4-Fluoro-3-methyl-phenyl-ethynyl)-4-((R)-2-hydroxy-1-methyl-ethylamino)-pyrimidin-2-ylamino]-phenyl)-S-methylsulfoximide] | < 500 | < 500
CCNc1nc(Nc2ccc(S(C)(=N)=O)cc2)ncc1C#Cc1ccc(F)c(C)c1 (racemic) [Example 1.24, (RS)-S-(4-[4-ethylamino-5-(4-fluoro-3-methyl-phenyl-ethynyl)-pyrimidin-2-ylamino]-phenyl)-S-methylsulfoximide] | < 500 | < 500
CCNc1nc(Nc2ccc(S(C)(=N)=O)cc2)ncc1C#Cc1ccc(OC)cc1 (racemic) [Example 1.26, (RS)-S-(4-[4-ethylamino-5-(4-methoxy-phenyl-ethynyl)-pyrimidin-2-ylamino]-phenyl)-S-methylsulfoximide] | < 500 | < 500
CCOC(=O)N=S(C)(=O)c1ccc(Nc2ncc(C#Cc3cccc(O)c3)c(N[C@H](C)CO)n2)cc1 (mixture of isomers) [Example 2.7] | < 500 | < 500
CS(=N)(=O)c1cccc(Nc2ncc(C#Cc3cccc(O)c3)cn2)c1 (racemic) [Example 4.2, (RS)—S-(3-[5-(3-hydroxy-phenylethynyl)-pyrimidin-2-ylamino]-phenyl)-S-methylsulfoximide] | < 500 | < 500
